Laboratory results from ChEMBL document CHEMBL3217526, “Bioguided discovery and pharmacophore modeling of the mycotoxic indole diterpene alkaloids penitrems as breast cancer proliferation, migration, and invasion inhibitors” (Medchemcomm, 2013).
Calls of active or inactive are those of the source. The calls are words filed in the database; no cut-off is given here.

Tests used:
MOLT-4 = assay: Cytotoxicity against human MOLT4 cells assessed as growth inhibition at 10 uM; format: functional; conditions: read-out: GI
SF-268 = assay: Cytotoxicity against human SF268 cells assessed as growth inhibition at 10 uM; format: functional; conditions: read-out: GI
MDA-MB-231 [1] = assay: Antiinvasive activity against human MDA-MB-231 cells assessed as inhibition of cell invasion at 15 uM after 24 hrs by BME Cell invasion assay kit; format: functional
HOP-62 = assay: Cytotoxicity against human HOP62 cells assessed as growth inhibition at 10 uM; format: functional; conditions: read-out: GI
SK-MEL-5 = assay: Cytotoxicity against human SK-MEL-5 cells assessed as growth inhibition at 10 uM; format: functional; conditions: read-out: GI
M14 = assay: Cytotoxicity against human M14 cells assessed as growth inhibition at 10 uM; format: functional; conditions: read-out: GI
MDA-MB-231 [2] = assay: Antiproliferative activity against human MDA-MB-231 cells after 72 hrs by MTT assay; format: functional, cell-based; conditions: MDA-MB-231, 72 h
KM12 = assay: Cytotoxicity against human KM12 cells assessed as growth inhibition at 10 uM; format: functional; conditions: read-out: GI
PC-3 = assay: Cytotoxicity against human PC3 cells assessed as growth inhibition at 10 uM; format: functional; conditions: read-out: GI
ACHN = assay: Cytotoxicity against human ACHN cells assessed as growth inhibition at 10 uM; format: functional; conditions: read-out: GI
[3] = Cytotoxicity against human UACC257 cells assessed as growth inhibition at 10 uM; format: functional; conditions: UACC-257, read-out: GI
SK-OV-3 = assay: Cytotoxicity against human SKOV3 cells assessed as growth inhibition at 10 uM; format: functional; conditions: read-out: GI
786-0 = assay: Cytotoxicity against human 786-0 cells assessed as growth inhibition at 10 uM; format: functional; conditions: read-out: GI
MCF7 [4] = assay: Antiproliferative activity against human MCF7 cells after 72 hrs by MTT assay; format: functional, cell-based; conditions: MCF7, 72 h
DU-145 = assay: Cytotoxicity against human DU145 cells assessed as growth inhibition at 10 uM; format: functional; conditions: read-out: GI
K562 = assay: Cytotoxicity against human K562 cells assessed as growth inhibition at 10 uM; format: functional; conditions: read-out: GI
[5] = Cytotoxicity against human OVCAR8 cells assessed as growth inhibition at 10 uM; format: functional; conditions: OVCAR-8, read-out: GI
HCT-116 = assay: Cytotoxicity against human HCT116 cells assessed as growth inhibition at 10 uM; format: functional; conditions: read-out: GI
NCI-H23 = assay: Cytotoxicity against human NCI-H23 cells assessed as growth inhibition at 10 uM; format: functional; conditions: read-out: GI
IGROV-1 = assay: Cytotoxicity against human IGROV1 cells assessed as growth inhibition at 10 uM; format: functional; conditions: read-out: GI
U-251 = assay: Cytotoxicity against human U251 cells assessed as growth inhibition at 10 uM; format: functional; conditions: read-out: GI
[6] = Cytotoxicity against human EKVX cells assessed as growth inhibition at 10 uM; format: functional; conditions: read-out: GI
LOX IMVI = assay: Cytotoxicity against human LOXIMVI cells assessed as growth inhibition at 10 uM; format: functional; conditions: read-out: GI
HCC 2998 = assay: Cytotoxicity against human HCC2998 cells assessed as growth inhibition at 10 uM; format: functional; conditions: read-out: GI
NCI-H226 = assay: Cytotoxicity against human NCI-H226 cells assessed as growth inhibition at 10 uM; format: functional; conditions: read-out: GI
[7] = Cytotoxicity against human OVCAR3 cells assessed as growth inhibition at 10 uM; format: functional; conditions: OVCAR-3, read-out: GI
SK-MEL-28 = assay: Cytotoxicity against human SK-MEL-28 cells assessed as growth inhibition at 10 uM; format: functional; conditions: read-out: GI
[8] = Cytotoxicity against human OVCAR4 cells assessed as growth inhibition at 10 uM; format: functional; conditions: OVCAR-4, read-out: GI
[9] = Cytotoxicity against human HCT15 cells assessed as growth inhibition at 10 uM; format: functional; conditions: HCT-15, read-out: GI
SW-620 = assay: Cytotoxicity against human SW620 cells assessed as growth inhibition at 10 uM; format: functional; conditions: read-out: GI
HT-29 = assay: Cytotoxicity against human HT-29 cells assessed as growth inhibition at 10 uM; format: functional; conditions: read-out: GI
SK-MEL-2 = assay: Cytotoxicity against human SK-MEL-2 cells assessed as growth inhibition at 10 uM; format: functional; conditions: read-out: GI
COLO 205 = assay: Cytotoxicity against human COLO205 cells assessed as growth inhibition at 10 uM; format: functional; conditions: read-out: GI
SNB-19 = assay: Cytotoxicity against human SNB19 cells assessed as growth inhibition at 10 uM; format: functional; conditions: read-out: GI
SF-539 = assay: Cytotoxicity against human SF539 cells assessed as growth inhibition at 10 uM; format: functional; conditions: read-out: GI
RXF 393 = assay: Cytotoxicity against human RXF393 cells assessed as growth inhibition at 10 uM; format: functional; conditions: read-out: GI
HL-60(TB) = assay: Cytotoxicity against human HL-60(TB) cells assessed as growth inhibition at 10 uM; format: functional; conditions: read-out: GI
[10] = Cytotoxicity against human Hs578T cells assessed as growth inhibition at 10 uM; format: functional; conditions: Hs-578T, read-out: GI
TK-10 = assay: Cytotoxicity against human TK10 cells assessed as growth inhibition at 10 uM; format: functional; conditions: read-out: GI
CCRF-CEM = assay: Cytotoxicity against human CCRF-CEM cells assessed as growth inhibition at 10 uM; format: functional; conditions: read-out: GI
MDA-MB-435 = assay: Cytotoxicity against human MDA-MB-435 cells assessed as growth inhibition at 10 uM; format: functional; conditions: read-out: GI
MDA-MB-231 [11] = assay: Antimigratory activity in human MDA-MB-231 cells after 24 hrs by wound healing assay; format: functional, cell-based; conditions: MDA-MB-231, 24 h
Caenorhabditis elegans [12] = assay: Toxicity in L1 stage Caenorhabditis elegans N2 assessed as viability and reproduction at 10 uM; format: organism-based; conditions: in vivo
SR = assay: Cytotoxicity against human SR cells assessed as growth inhibition at 10 uM; format: functional; conditions: read-out: GI
CAKI-1 = assay: Cytotoxicity against human CAKI-1 cells assessed as growth inhibition at 10 uM; format: functional; conditions: read-out: GI
NCI-H460 = assay: Cytotoxicity against human NCI-H460 cells assessed as growth inhibition at 10 uM; format: functional; conditions: read-out: GI
SNB-75 = assay: Cytotoxicity against human SNB75 cells assessed as growth inhibition at 10 uM; format: functional; conditions: read-out: GI
NCI-H322M = assay: Cytotoxicity against human NCI-H322M cells assessed as growth inhibition at 10 uM; format: functional; conditions: read-out: GI
RPMI-8226 = assay: Cytotoxicity against human RPMI8226 cells assessed as growth inhibition at 10 uM; format: functional; conditions: read-out: GI
MDA-MB-231 [13] = assay: Cytotoxicity against human MDA-MB-231 cells assessed as growth inhibition at 10 uM; format: functional; conditions: read-out: GI
Malme-3M = assay: Cytotoxicity against human MALME-3M cells assessed as growth inhibition at 10 uM; format: functional; conditions: read-out: GI
Caenorhabditis elegans [14] = assay: Toxicity in L1 stage Caenorhabditis elegans N2 assessed as viability and reproduction at 50 uM; format: organism-based; conditions: in vivo
BT-549 = assay: Cytotoxicity against human BT549 cells assessed as growth inhibition at 10 uM; format: functional; conditions: read-out: GI
[15] = Cytotoxicity against human NCI-ADR-RES cells assessed as growth inhibition at 10 uM; format: functional; conditions: read-out: GI
SN12C = assay: Cytotoxicity against human SN12C cells assessed as growth inhibition at 10 uM; format: functional; conditions: read-out: GI
[16] = Cytotoxicity against human UO31 cells assessed as growth inhibition at 10 uM; format: functional; conditions: UO-31, read-out: GI
MDA-MB-468 = assay: Cytotoxicity against human MDA-MB-468 cells assessed as growth inhibition at 10 uM; format: functional; conditions: read-out: GI
T47D = assay: Cytotoxicity against human T47D cells assessed as growth inhibition at 10 uM; format: functional; conditions: read-out: GI
MCF7 [17] = assay: Cytotoxicity against human MCF7 cells assessed as growth inhibition at 10 uM; format: functional; conditions: read-out: GI
NCI-H522 = assay: Cytotoxicity against human NCI-H522 cells assessed as growth inhibition at 10 uM; format: functional; conditions: read-out: GI
[18] = Cytotoxicity against human UACC62 cells assessed as growth inhibition at 10 uM; format: functional; conditions: UACC-62, read-out: GI
A549 = assay: Cytotoxicity against human A549 cells assessed as growth inhibition at 10 uM; format: functional; conditions: read-out: GI
[19] = Cytotoxicity against human OVCAR5 cells assessed as growth inhibition at 10 uM; format: functional; conditions: OVCAR-5, read-out: GI

C=C(C)[C@H]1O[C@H]2CC[C@@]3(C)[C@@](O)(CC[C@H]4[C@@H]5OC(C)(C)[C@H]6C[C@@H]7C(=C)Cc8ccc9[nH]c(c5c9c8[C@@]76O)[C@@]43C)[C@]23O[C@@H]3[C@H]1O
inhibition of growth at 10 µM (MOLT-4): 78% | inhibition of growth at 10 µM (SF-268): 88.9% | inhibition (MDA-MB-231 [1]): inactive | inhibition of growth at 10 µM (HOP-62): 99.2% | inhibition of growth at 10 µM (SK-MEL-5): 104% | inhibition of growth at 10 µM (M14): 100% | IC50 (MDA-MB-231 [2]): 25.4 µM | inhibition of growth at 10 µM (KM12): 110% | inhibition of growth at 10 µM (PC-3): 82.9% | inhibition of growth at 10 µM (ACHN): 101% | inhibition of growth at 10 µM [3]: 97.1% | inhibition of growth at 10 µM (SK-OV-3): 103% | inhibition of growth at 10 µM (786-0): 96.2% | IC50 (MCF7 [4]): 17.5 µM | inhibition of growth at 10 µM (DU-145): 100% | inhibition of growth at 10 µM (K562): 76.9% | inhibition of growth at 10 µM [5]: 96.9% | inhibition of growth at 10 µM (HCT-116): 92.4% | inhibition of growth at 10 µM (NCI-H23): 117% | inhibition of growth at 10 µM (IGROV-1): 89.7% | inhibition of growth at 10 µM (U-251): 99% | inhibition of growth at 10 µM [6]: 104% | inhibition of growth at 10 µM (LOX IMVI): 105% | inhibition of growth at 10 µM (HCC 2998): 104% | inhibition of growth at 10 µM (NCI-H226): 98.2% | inhibition of growth at 10 µM [7]: 111% | inhibition of growth at 10 µM (SK-MEL-28): 110% | inhibition of growth at 10 µM [8]: 109% | inhibition of growth at 10 µM [9]: 98.9% | inhibition of growth at 10 µM (SW-620): 106% | inhibition of growth at 10 µM (HT-29): 90.6% | inhibition of growth at 10 µM (SK-MEL-2): 96.4% | inhibition of growth at 10 µM (COLO 205): 106% | inhibition of growth at 10 µM (SNB-19): 101% | inhibition of growth at 10 µM (SF-539): 90.7% | inhibition of growth at 10 µM (RXF 393): 95% | inhibition of growth at 10 µM (HL-60(TB)): 101% | inhibition of growth at 10 µM [10]: 92.2% | inhibition of growth at 10 µM (TK-10): 107% | inhibition of growth at 10 µM (CCRF-CEM): 68% | inhibition of growth at 10 µM (MDA-MB-435): 106% | IC50 (MDA-MB-231 [11]): 20.3 µM | Activity (Caenorhabditis elegans [12]): Non-toxic | inhibition of growth at 10 µM (SR): 91.9% | inhibition of growth at 10 µM (CAKI-1): 107% | inhibition of growth at 10 µM (NCI-H460): 100% | inhibition of growth at 10 µM (SNB-75): 84.4% | inhibition of growth at 10 µM (NCI-H322M): 99.4% | inhibition of growth at 10 µM (RPMI-8226): 72.5% | inhibition of growth at 10 µM (MDA-MB-231 [13]): 101% | inhibition of growth at 10 µM (Malme-3M): 98.5% | Activity (Caenorhabditis elegans [14]): Non-toxic | inhibition of growth at 10 µM (BT-549): 101% | inhibition of growth at 10 µM [15]: 109% | inhibition of growth at 10 µM (SN12C): 99.2% | inhibition of growth at 10 µM [16]: 72.5% | inhibition of growth at 10 µM (MDA-MB-468): 96.6% | inhibition of growth at 10 µM (T47D): 94.8% | inhibition of growth at 10 µM (MCF7 [17]): 100% | inhibition of growth at 10 µM (NCI-H522): 86% | inhibition of growth at 10 µM [18]: 101% | inhibition of growth at 10 µM (A549): 92.6% | inhibition of growth at 10 µM [19]: 115%
